According to ChEMBL document CHEMBL1201862, “PubChem BioAssay data set” (2004):
The source made the active and inactive calls.

How the values were obtained:
[1] = target: T1, Sentrin-specific protease 1 (Homo sapiens, UniProt Q9P0U3); test: potency of human SENP1 inhibitors, dose response, biochemical, kinetic FRET (AID 651697); format: functional; details: read-out: IC50_Mean
T1 sequence (Q9P0U3 whole entry): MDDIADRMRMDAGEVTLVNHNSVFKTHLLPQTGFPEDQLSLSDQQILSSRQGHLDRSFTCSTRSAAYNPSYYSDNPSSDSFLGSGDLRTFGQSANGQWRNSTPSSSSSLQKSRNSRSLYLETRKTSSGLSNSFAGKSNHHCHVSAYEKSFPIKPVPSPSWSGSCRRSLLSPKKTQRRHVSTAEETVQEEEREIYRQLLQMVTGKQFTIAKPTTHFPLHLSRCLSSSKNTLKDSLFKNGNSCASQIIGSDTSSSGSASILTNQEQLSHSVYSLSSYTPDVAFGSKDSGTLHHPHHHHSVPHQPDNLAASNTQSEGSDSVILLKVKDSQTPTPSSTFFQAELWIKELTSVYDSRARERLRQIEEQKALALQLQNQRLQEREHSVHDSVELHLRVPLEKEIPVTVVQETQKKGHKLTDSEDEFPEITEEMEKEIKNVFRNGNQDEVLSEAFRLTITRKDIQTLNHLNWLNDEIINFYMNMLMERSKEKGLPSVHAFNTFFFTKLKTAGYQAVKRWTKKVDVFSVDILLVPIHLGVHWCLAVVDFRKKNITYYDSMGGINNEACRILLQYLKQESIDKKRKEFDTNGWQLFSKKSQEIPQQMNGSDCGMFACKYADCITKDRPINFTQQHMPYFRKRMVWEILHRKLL

[2] = target: T1, Sentrin-specific protease 1; test: Dose response confirmation of small molecule inhibitors of the catalytic domain of the SUMO protease, SENP1 in a FRET assay.; format: functional; details: read-out: IC50_Mean
[3] = target: T2, Heat shock factor protein 1 (Mus musculus, UniProt P38532); test: inhibition of MG132-induced HSE-luciferase signal, confirmation, cell-based, NIH3T3, luminescence, dose retest (AID 2382); format: functional;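 note: NIH3T3 fibroblasts with HSF1-driven luciferase reporter stressed by proteasome inhibitor MG132; luminescence from HSF1-driven luciferase expression after 8 hours of MG132 stress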
T2 sequence (P38532 whole entry): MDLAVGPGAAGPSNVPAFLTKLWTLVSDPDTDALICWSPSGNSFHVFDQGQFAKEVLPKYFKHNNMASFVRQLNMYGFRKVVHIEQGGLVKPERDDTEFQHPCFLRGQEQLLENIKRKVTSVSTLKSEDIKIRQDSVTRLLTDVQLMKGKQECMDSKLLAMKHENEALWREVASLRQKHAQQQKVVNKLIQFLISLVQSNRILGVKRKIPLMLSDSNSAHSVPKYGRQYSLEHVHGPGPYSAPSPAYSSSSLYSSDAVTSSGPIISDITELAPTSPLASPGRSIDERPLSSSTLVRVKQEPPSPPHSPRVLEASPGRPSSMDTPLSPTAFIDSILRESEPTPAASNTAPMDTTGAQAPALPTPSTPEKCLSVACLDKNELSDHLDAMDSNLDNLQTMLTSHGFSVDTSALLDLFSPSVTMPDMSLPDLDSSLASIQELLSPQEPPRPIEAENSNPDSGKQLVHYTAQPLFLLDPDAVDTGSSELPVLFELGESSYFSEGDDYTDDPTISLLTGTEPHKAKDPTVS

[4] = target: DNA repair protein RAD52 homolog (Homo sapiens, UniProt P43351); format: functional, biochemical
[5] = T. b. rhodesiense proliferation inhibition, dose response, STIB900 strain, plate reader, cherry pick (AID 651893); format: functional, cell-based; details: Trypanosoma brucei
[6] = Inhibition of Plasmodium falciparum NF54 Measured in Cell-Based System Using Plate Reader - 2138-11_Inhibitor_Dose_CherryPick_Activity.; format: functional
[7] = L. donovani amastigote growth inhibition, dose response, axenic amastigotes, plate reader, cherry pick (AID 651891); format: functional, cell-based; details: Leishmania donovani
[8] = Inhibition of T. cruzi Tulahuen strain amastigotes in L-6 muscle cells Measured in Cell-Based and Microorganism Combination System Using Plate Reader - 2138-03_Inhibitor_Dose_CherryPick_Activity.; format: functional; details: Rattus norvegicus, L6
[9] = intracellular Trypanosoma cruzi inhibitors in host cells – cell-based, plate reader, cherry-pick samples, set 3, dose response (AID 651818); format: functional;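 note: compounds incubated with infected cells for about four days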
[10] = cytotoxicity in L-6 rat myocytes, dose response, cytotoxicity control, cell-based, plate reader, cherry-pick (AID 651896); format: functional
[11] = Luminescence Cell-Based Dose Confirmation HTS to Identify Inhibitors of Platelet Dense Granule Release. [Related pubchem assays: 1663 (Primary HTS), 1678 (Summary of Project)]; format: functional
[12] = target: T3, Aminopeptidase N (Plasmodium falciparum FcB1/Columbia, UniProt O96935); test: P. falciparum M1AAP inhibitors, biochemical, fluorogenic H-Leu-NHMec substrate, 1536-well (AID 1445); set-up: species or system Plasmodium falciparum 3D7, 3D7
T3 sequence (O96935 whole entry): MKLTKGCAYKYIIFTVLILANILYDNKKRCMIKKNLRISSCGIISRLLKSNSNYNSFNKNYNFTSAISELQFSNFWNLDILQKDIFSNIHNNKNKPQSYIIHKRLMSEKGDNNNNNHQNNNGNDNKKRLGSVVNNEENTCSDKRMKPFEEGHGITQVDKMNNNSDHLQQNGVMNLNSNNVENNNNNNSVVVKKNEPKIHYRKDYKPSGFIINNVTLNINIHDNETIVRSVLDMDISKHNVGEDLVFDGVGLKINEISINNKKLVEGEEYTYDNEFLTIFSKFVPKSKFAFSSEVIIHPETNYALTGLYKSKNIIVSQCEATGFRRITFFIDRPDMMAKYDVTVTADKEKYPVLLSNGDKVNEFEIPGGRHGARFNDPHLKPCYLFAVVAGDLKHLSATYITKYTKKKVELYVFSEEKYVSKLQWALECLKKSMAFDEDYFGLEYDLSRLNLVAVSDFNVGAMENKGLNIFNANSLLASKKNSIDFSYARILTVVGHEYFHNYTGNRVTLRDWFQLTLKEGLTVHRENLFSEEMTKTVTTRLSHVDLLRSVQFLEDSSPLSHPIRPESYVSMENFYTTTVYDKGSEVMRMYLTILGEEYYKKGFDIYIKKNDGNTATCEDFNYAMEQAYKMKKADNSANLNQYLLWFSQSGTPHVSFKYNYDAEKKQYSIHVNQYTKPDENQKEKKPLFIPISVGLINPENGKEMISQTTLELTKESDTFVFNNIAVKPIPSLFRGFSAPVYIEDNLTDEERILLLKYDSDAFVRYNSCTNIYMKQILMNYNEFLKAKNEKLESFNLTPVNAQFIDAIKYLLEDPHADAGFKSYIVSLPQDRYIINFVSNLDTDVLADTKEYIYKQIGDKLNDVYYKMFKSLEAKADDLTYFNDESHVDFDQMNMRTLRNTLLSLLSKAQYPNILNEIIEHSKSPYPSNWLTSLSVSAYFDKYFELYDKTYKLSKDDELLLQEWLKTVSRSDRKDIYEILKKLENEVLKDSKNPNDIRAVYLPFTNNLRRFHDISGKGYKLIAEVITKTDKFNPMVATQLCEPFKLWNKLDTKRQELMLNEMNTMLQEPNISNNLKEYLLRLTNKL

[13] = target: Luciferin 4-monooxygenase (Photinus pyralis, UniProt P08659); test: firefly luciferase enzyme inhibitors, dose response, biochemical, luminescence (AID 1891)
[14] = LGR2 antagonists, dose response, cell-based, HEK293, CRE-luciferase reporter, cherry pick, set 2 (AID 743343); format: functional;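 note: transfected cells were stimulated with diluted bursicon conditioned medium after compound addition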
[15] = A549 cell cytotoxicity, dose response, cytotoxicity control, plate reader, cherry-pick, antagonist series (AID 743412); format: functional, cell-based
[16] = target: T4, Rac GTPase-activating protein 1 (Homo sapiens, UniProt Q9H0H5); test: MgcRacGAP GTPase-activating activity inhibitors, confirmation, biochemical, ADP Hunter fluorescence, primary and confirmatory (AID 624330); format: functional
T4 sequence (Q9H0H5 whole entry): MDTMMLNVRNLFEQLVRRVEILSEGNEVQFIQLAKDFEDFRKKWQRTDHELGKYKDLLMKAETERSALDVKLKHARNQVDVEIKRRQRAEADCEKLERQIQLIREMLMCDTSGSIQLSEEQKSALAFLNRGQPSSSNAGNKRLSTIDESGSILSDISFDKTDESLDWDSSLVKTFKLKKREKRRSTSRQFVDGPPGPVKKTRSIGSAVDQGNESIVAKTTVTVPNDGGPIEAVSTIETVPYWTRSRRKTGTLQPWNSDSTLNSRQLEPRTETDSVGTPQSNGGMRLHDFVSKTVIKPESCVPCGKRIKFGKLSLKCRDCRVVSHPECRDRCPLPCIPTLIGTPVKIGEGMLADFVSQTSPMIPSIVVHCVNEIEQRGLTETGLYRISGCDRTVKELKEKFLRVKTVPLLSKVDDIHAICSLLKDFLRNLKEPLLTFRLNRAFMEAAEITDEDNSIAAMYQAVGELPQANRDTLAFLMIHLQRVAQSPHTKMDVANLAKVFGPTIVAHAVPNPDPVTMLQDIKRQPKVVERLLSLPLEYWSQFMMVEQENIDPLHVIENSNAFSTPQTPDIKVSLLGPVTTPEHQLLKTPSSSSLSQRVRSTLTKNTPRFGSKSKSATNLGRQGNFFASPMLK

[17] = MC4R antagonists, dose response, counter-screen for LGR2 antagonist project, cell-based, plate reader, cherry pick (AID 743444); format: functional;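 note: transfected HEK 293 cells stimulated with alpha-MSH peptide; potency of inhibitors of the alpha-MSH evoked signal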
[18] = HeLa cell cytotoxicity, dose response, cytotoxicity control for MgcRacGAP inhibitor project (AID 624300); format: functional
[19] = target: Fructose-bisphosphate aldolase (Mycobacterium tuberculosis, UniProt P9WQA3); test: Fluorescence-based biochemical high throughput dose response assay for inhibitors of the fructose-bisphosphate aldolase (FBA) of M. tuberculosis.; format: functional
[20] = target: ADP-ribosylation factor GTPase-activating protein 1 (Rattus norvegicus, UniProt Q62848); test: Fluorescence polarization-based biochemical high throughput dose response screening assay to identify inhibitors of ADP-ribosylation factor GTPase activating protein 1 (ARFGAP1).; format: functional
[21] = target: Arf-GAP with SH3 domain, ANK repeat and PH domain-containing protein 1 (Homo sapiens, UniProt Q9ULH1); format: functional;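 note: biochemical fluorescence polarization dose–response screen measuring inhibition of ASAP1; ASAP1 GAP domain stimulating GTP hydrolysis by truncated human ARF1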
[22] = Counterscreen for inhibitors of Trypanosoma brucei methionyl tRNA synthetase (MetRS): Luminescence-based cell-based high throughput dose response assay to identify compounds that are cytotoxic to Jurkat human T lymphocyte cells.; format: functional

Sequence of Fructose-bisphosphate aldolase (P9WQA3 whole entry): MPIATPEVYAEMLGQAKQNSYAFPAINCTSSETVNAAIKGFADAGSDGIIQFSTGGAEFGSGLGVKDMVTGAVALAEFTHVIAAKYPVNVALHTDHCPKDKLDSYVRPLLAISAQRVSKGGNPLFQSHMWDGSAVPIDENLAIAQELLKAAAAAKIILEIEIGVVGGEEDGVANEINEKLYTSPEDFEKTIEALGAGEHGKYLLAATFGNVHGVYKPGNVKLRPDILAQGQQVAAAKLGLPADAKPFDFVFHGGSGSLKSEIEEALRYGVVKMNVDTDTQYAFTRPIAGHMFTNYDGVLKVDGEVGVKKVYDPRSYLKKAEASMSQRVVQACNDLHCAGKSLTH
Sequence of ADP-ribosylation factor GTPase-activating protein 1 (Q62848 whole entry, the tested form may be a part): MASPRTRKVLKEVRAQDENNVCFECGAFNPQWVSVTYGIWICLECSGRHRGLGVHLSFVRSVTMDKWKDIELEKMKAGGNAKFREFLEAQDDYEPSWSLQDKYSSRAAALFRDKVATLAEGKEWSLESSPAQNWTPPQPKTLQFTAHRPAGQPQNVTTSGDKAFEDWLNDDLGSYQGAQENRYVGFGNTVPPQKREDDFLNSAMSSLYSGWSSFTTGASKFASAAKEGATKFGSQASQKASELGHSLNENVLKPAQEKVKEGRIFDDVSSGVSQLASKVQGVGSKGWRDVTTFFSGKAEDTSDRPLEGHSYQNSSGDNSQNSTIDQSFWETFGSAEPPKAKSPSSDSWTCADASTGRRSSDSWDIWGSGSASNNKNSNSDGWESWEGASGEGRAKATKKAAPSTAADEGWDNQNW
Sequence of Arf-GAP with SH3 domain, ANK repeat and PH domain-containing protein 1 (Q9ULH1 whole entry, the tested form may be a part): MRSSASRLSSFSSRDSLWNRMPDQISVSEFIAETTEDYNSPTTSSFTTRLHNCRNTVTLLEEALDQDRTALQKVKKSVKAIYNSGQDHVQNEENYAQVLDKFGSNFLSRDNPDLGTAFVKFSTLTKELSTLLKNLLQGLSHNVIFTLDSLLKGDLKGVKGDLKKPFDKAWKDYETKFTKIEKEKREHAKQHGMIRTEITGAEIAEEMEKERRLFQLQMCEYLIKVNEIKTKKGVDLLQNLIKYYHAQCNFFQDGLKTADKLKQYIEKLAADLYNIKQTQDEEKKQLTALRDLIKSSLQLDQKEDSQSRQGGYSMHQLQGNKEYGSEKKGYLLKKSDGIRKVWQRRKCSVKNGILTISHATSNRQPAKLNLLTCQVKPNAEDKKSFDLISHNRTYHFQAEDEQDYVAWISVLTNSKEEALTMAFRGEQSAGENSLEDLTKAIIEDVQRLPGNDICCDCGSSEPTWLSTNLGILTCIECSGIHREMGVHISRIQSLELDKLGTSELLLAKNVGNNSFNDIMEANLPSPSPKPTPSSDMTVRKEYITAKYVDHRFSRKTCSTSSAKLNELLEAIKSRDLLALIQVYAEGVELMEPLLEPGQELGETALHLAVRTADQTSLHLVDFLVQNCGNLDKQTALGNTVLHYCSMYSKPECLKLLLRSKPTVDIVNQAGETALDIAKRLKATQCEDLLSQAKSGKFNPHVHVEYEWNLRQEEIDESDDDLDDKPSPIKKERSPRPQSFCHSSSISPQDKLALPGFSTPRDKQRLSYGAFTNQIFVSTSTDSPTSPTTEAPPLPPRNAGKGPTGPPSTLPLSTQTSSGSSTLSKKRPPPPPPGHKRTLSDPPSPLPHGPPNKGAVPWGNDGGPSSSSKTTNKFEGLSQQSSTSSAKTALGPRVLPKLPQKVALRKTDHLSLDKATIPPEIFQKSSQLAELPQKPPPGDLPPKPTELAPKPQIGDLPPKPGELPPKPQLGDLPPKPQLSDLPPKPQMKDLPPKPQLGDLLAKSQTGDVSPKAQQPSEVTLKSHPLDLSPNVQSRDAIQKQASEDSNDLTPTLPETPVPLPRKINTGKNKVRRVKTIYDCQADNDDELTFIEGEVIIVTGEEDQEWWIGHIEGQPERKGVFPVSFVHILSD
Sequence of DNA repair protein RAD52 homolog (P43351 whole entry): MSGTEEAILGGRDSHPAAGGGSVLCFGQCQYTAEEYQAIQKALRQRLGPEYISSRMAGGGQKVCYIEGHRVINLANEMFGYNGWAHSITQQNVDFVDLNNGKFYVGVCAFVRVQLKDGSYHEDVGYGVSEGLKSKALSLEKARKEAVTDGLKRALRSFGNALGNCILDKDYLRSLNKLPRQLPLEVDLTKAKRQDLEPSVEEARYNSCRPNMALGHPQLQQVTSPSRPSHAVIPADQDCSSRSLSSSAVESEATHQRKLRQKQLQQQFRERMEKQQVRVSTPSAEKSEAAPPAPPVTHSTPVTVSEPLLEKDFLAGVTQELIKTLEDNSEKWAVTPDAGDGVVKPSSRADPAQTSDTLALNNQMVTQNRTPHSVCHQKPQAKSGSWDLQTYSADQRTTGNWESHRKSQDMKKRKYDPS
Sequence of Luciferin 4-monooxygenase (P08659 whole entry): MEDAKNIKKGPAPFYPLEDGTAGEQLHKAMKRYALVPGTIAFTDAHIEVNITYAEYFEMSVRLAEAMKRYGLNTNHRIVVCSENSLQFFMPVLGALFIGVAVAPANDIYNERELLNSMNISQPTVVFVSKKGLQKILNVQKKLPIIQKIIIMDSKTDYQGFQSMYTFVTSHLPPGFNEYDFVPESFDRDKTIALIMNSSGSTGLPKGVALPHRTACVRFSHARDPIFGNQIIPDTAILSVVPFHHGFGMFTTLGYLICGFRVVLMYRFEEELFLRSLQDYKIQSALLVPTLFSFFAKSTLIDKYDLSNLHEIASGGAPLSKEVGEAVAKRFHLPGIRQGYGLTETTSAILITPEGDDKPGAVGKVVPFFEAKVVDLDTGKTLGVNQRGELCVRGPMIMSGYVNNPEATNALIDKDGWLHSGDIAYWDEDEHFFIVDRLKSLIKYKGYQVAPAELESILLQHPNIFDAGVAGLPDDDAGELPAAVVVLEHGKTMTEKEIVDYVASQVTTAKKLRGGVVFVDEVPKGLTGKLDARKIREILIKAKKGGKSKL

## NC(=O)CCC(C(=O)O)N1C(=O)c2ccc(O)cc2C1=O (stereo not drawn)
[1]
  IC50: 23.9 µM (inactive)
[2]
  IC50: 16.9 µM (active)
[3]
  EC50: > 195 µM (not active)

## CCN1CCN(Cc2ccc(C(=O)Nc3ccc(C)c(NCc4cnc(NC(=O)OC)cn4)c3)cc2C(F)(F)F)CC1
[4]
  AC50: 15.1 µM (active)

## C[C@H](CO)N1C[C@H](C)[C@@H](CN(C)Cc2ccc(C(F)(F)F)cc2)Oc2c(NC(=O)c3ccncc3)cccc2C1=O
[5]
  IC50: 7.22 µM (inactive)
[6]
  IC50: 3.79 µM (inactive)
[7]
  IC50: 41.4 µM (inactive)
[8]
  IC50: 3.79 µM (inactive)
[9]
  AC50: 0.105 µM (active)
[10]
  IC50: 36.1 µM (inactive)

## C[C@H]1CN([C@@H](C)CO)C(=O)c2cccc(NC(=O)c3ccncc3)c2O[C@H]1CN(C)Cc1ccc(-c2ccccc2)cc1
[5]
  IC50: 11.2 µM (inactive)
[6]
  IC50: 3.21 µM (inactive)
[7]
  IC50: > 100 µM (inactive)
[8]
  IC50: 3.21 µM (inactive)
[9]
  AC50: 0.08 µM (active)
[10]
  IC50: 47.5 µM (inactive)

## Nc1ccc(-c2nc3ccc(N)cc3s2)cc1
[11]
  EC50: 17.5 µM (active)
[12]
  IC50: 21.3 µM (active)
[13]
  EC50: 8.6 µM (active)
[14]
  AC50: 7.8 µM (active)
[15]
  AC50: > 52 µM (inactive)
[16]
  IC50: 70.2 µM (active)
[17]
  AC50: 7.01 µM (active)
[18]
  CC50: 100 µM (active)

## Cc1coc2c1c(C)cc1oc(=O)c(CC(=O)NCCCN3CCCC3=O)c(C)c12
[19]
  IC50: 1.43 µM (active)

## COc1ccc(S(=O)(=O)N(CCCN2CCCC2=O)Cc2cc3c(C)cc(C)cc3nc2O)cc1
[19]
  IC50: > 3.33 µM (active)

## Cc1ccc2nc(SCC(=O)N3CCC(C)CC3)nc(=O)n2c1
[20]
  IC50: 26.2 µM (inactive)
[21]
  IC50: 22.9 µM (inactive)

## c1ccc(CCNCCCOc2cccc3ccccc23)cc1
[16]
  IC50: 156 µM (active)
[18]
  CC50: 75.9 µM (active)

## COc1cccc(NC(=O)Cn2nnc(C(=O)Nc3cc(Cl)ccc3OC)c2N)c1
[20]
  IC50: 5.04 µM (active)
[21]
  IC50: 8.8 µM (active)

## COc1ccc(NC(=O)COC(=O)CCCOc2ccc(Cl)cc2Cl)cc1
[22]
  IC50: 83.3 µM (inactive)
